Measured values taken from ChEMBL document CHEMBL5108059, “Discovery of 2-Methyl-2-(4-(2-methyl-8-(1H-pyrrolo[2,3-b]pyridin-6-yl)-1H-naphtho[1,2-d]imidazol-1-yl)phenyl)propanenitrile as a Novel PI3K/mTOR Inhibitor with Enhanced Antitumor Efficacy In Vitro and In Vivo” (J Med Chem, 2022).

Tests used:
[1] = target: Serine/threonine-protein kinase mTOR (Homo sapiens, UniProt P42345); assay: Inhibition of N-terminal FLAG-tagged recombinant human mTOR (1362 to end residue) using ULight-4EBP1 peptide as substrate incubated for 30 mins in presence of ATP by Lance ultra assay
[2] = target: Phosphatidylinositol 4,5-bisphosphate 3-kinase catalytic subunit alpha isoform (Homo sapiens, UniProt P42336); assay: Inhibition of PI3Kalpha (unknown origin) using PIP2 as substrate incubated for 1 hr in presence of ATP by Kinase Glo luminescence assay
[3] = target: T1, Phosphatidylinositol 4,5-bisphosphate 3-kinase catalytic subunit delta isoform (Homo sapiens, UniProt O00329); assay: Inhibition of PI3Kdelta (unknown origin) using PIP2 as substrate incubated for 2 hrs in presence of ATP by Kinase Glo luminescence assay
T1 sequence (O00329 whole entry): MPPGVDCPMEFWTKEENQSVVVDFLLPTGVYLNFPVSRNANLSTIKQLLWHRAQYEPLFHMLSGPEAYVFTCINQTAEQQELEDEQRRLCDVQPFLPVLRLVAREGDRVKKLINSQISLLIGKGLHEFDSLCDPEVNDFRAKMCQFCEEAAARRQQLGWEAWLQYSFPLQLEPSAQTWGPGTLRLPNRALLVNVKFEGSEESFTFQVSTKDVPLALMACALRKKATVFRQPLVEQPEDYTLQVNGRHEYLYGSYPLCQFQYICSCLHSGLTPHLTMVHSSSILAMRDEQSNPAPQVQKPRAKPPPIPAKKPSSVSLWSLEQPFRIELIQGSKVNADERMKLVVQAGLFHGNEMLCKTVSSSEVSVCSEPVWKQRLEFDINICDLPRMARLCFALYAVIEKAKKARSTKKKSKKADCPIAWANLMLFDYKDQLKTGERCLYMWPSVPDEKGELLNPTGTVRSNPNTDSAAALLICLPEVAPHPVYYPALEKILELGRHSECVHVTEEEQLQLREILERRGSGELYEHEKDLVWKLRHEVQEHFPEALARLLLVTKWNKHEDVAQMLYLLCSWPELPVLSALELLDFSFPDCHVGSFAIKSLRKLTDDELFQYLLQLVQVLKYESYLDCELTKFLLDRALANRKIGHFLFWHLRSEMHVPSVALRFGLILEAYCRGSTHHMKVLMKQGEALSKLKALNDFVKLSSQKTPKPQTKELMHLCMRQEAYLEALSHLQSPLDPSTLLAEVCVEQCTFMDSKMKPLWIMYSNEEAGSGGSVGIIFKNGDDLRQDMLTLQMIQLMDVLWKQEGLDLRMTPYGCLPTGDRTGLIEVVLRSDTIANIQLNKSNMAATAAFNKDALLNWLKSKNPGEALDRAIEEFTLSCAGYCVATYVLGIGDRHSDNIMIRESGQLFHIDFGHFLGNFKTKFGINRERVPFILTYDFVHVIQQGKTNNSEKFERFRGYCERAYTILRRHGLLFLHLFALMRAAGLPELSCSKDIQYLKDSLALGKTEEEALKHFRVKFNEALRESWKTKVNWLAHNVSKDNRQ

HT-29 = assay: Antiproliferative activity against human HT-29 cells with PIK3CA mutation assessed as inhibition of cell growth incubated for 48 to 72 hrs by MTT assay; format: functional, cell-based
HCT-15 = assay: Antiproliferative activity against human HCT-15 cells with PIK3CA mutation assessed as inhibition of cell growth incubated for 48 to 72 hrs by MTT assay; format: functional, cell-based
NCI-H3122 = assay: Antiproliferative activity against human NCI-H3122 cells assessed as inhibition of cell growth incubated for 48 to 72 hrs by MTT assay; format: functional, cell-based
HeLa = assay: Antiproliferative activity against human HeLa cells assessed as inhibition of cell growth incubated for 48 to 72 hrs by MTT assay; format: functional, cell-based
SW-620 = assay: Antiproliferative activity against human SW620 cells assessed as inhibition of cell growth incubated for 48 to 72 hrs by MTT assay; format: functional, cell-based
NCI-H446 = assay: Antiproliferative activity against PTEN-null human NCI-H446 cells assessed as inhibition of cell growth incubated for 48 to 72 hrs by MTT assay; format: functional, cell-based

Phosphatidylinositol 4,5-bisphosphate 3-kinase catalytic subunit alpha isoform, sequence (P42336 whole entry, canonical isoform): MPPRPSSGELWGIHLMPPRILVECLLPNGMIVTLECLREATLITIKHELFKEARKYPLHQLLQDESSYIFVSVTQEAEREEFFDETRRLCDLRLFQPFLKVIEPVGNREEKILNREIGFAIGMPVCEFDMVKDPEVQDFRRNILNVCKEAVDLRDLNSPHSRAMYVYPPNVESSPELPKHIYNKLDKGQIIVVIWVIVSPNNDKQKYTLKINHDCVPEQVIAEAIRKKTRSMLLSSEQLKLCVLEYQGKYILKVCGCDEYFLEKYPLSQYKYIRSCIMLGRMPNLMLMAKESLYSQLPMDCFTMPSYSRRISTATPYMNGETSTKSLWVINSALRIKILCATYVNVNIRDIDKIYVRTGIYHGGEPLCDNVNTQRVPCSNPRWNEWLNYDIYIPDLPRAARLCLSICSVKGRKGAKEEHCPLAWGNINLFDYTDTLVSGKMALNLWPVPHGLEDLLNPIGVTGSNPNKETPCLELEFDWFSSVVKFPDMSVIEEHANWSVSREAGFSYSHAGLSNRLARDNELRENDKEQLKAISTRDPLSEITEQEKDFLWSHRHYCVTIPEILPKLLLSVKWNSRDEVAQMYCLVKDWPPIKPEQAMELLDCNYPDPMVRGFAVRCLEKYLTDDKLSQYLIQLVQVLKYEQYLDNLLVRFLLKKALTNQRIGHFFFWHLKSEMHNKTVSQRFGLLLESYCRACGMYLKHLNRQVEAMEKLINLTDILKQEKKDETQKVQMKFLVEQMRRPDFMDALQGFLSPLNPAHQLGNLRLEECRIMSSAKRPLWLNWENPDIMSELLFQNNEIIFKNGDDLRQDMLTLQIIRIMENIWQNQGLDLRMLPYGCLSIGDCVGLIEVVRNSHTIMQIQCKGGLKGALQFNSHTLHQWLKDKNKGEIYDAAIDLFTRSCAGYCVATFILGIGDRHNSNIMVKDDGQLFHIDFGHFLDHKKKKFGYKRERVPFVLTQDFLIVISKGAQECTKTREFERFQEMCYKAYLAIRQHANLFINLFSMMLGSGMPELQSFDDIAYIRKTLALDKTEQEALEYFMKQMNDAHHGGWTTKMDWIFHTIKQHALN

SMILES | IC50 [1] | IC50 [2] | IC50 [3] | IC50 (HT-29) | IC50 (HCT-15) | IC50 (NCI-H3122) | IC50 (HeLa) | IC50 (SW-620) | IC50 (NCI-H446)
Cc1nc2cnc3ccc(-c4cnc5[nH]ccc5c4)cc3c2n1[C@@H](C)c1ccc(F)cc1 | 87.4 nM | 140 nM | 203 nM | 1710 nM | 1040 nM | 1970 nM | 3510 nM | 1610 nM | 3020 nM
Cc1nc2cnc3ccc(-c4ccc5ccccc5c4)cc3c2n1-c1ccc(F)cc1 | 190 nM | 148 nM | 202 nM | 3140 nM | 9750 nM | 8950 nM | 16800 nM | 13700 nM | 12200 nM
Cc1ccc(-c2ccc3ncc4nc(C)n(-c5ccc(F)cc5)c4c3c2)cc1 | > 1000 nM | 357 nM | 579 nM | – | – | – | – | – | –
Cc1nc2cnc3ccc(-c4cnc(N)nc4)cc3c2n1-c1ccc(F)cc1 | 62.1 nM | 36.7 nM | 30.4 nM | 1320 nM | 1970 nM | 5390 nM | 2710 nM | 1930 nM | 4160 nM
Cc1nc2cnc3ccc(-c4cnc5[nH]ccc5c4)cc3c2n1-c1ccc(C(F)(F)F)cc1 | 109 nM | 47.1 nM | 66.3 nM | 1250 nM | 970 nM | 1030 nM | 1080 nM | 1160 nM | 1390 nM
Cc1nc2cnc3ccc(-c4cnc5[nH]ccc5c4)cc3c2n1CC1CCOCC1 | 415 nM | 307 nM | 218 nM | – | – | – | – | – | –
Cc1nc2cnc3ccc(-c4cnc5[nH]ccc5c4)cc3c2n1CC1CCOC1 (centres undefined) | 392 nM | 365 nM | 450 nM | – | – | – | – | – | –
Cc1nc2cnc3ccc(-c4cnc5[nH]ccc5c4)cc3c2n1-c1ccc(N2CCOCC2)cc1 | 114 nM | 69.3 nM | 156 nM | 1020 nM | 1360 nM | 1080 nM | 940 nM | 930 nM | 1470 nM
Cc1nc2cnc3ccc(-c4ccc(O)cc4)cc3c2n1-c1ccc(F)cc1 | 244 nM | 89.2 nM | 132 nM | 3360 nM | 2750 nM | 3730 nM | 2160 nM | 3620 nM | 7820 nM
COc1ccc(-c2ccc3ncc4nc(C)n(-c5ccc(F)cc5)c4c3c2)cc1 | > 1000 nM | 321 nM | > 1000 nM | – | – | – | – | – | –
Cc1nc2cnc3ccc(-c4cnn(C)c4)cc3c2n1-c1ccc(F)cc1 | > 1000 nM | 672 nM | > 1000 nM | – | – | – | – | – | –
Cc1noc(C)c1-c1ccc2ncc3nc(C)n(-c4ccc(F)cc4)c3c2c1 | > 1000 nM | > 1000 nM | 852 nM | – | – | – | – | – | –
Cc1nc2cnc3ccc(-c4cc(C(F)(F)F)cc(C(F)(F)F)c4)cc3c2n1-c1ccc(F)cc1 | > 1000 nM | > 1000 nM | > 1000 nM | – | – | – | – | – | –
Cc1nc2cnc3ccc(-c4cnc5ccccc5c4)cc3c2n1-c1ccc(F)cc1 | 32.3 nM | 33.1 nM | 40.5 nM | 3250 nM | 3090 nM | 5080 nM | 4310 nM | 2790 nM | 7130 nM
Cc1nc2cnc3ccc(-c4cnc5[nH]ccc5c4)cc3c2n1Cc1ccccc1 | 263 nM | 117 nM | 106 nM | 2980 nM | 3060 nM | 6710 nM | 2720 nM | 4160 nM | 7590 nM
COC(=O)c1ccc(-c2ccc3ncc4nc(C)n(-c5ccc(F)cc5)c4c3c2)cc1 | 206 nM | 251 nM | 336 nM | 18700 nM | > 20000 nM | > 20000 nM | 19800 nM | > 20000 nM | > 20000 nM
Cc1nc2cnc3ccc(-c4cnc5[nH]ccc5c4)cc3c2n1-c1ccc(C(F)(F)F)nc1 | 159 nM | 104 nM | 93.1 nM | 1530 nM | 2850 nM | 2360 nM | 3710 nM | 1830 nM | 3210 nM

SMILES | IC50 [1] | IC50 [2] | IC50 [3] | IC50 (HT-29) | IC50 (HCT-15) | IC50 (NCI-H3122) | IC50 (HeLa) | IC50 (SW-620) | IC50 (NCI-H446)
Cc1nc2cnc3ccc(-c4cnc5[nH]ccc5c4)cc3c2n1[C@H](C)c1ccccc1 | 102 nM | 79.6 nM | 164 nM | 1870 nM | 1430 nM | 1960 nM | 2350 nM | 1650 nM | 2780 nM
Cc1nc2cnc3ccc(-c4cnc5[nH]ccc5c4)cc3c2n1C | 679 nM | 472 nM | > 1000 nM | – | – | – | – | – | –
Cc1nc2cnc3ccc(-c4ccc5[nH]ccc5c4)cc3c2n1-c1ccc(F)cc1 | 49.3 nM | 29.8 nM | 57.3 nM | 2720 nM | 1920 nM | 2310 nM | 1790 nM | 2530 nM | 3080 nM
Cc1nc2cnc3ccc(-c4cnc5[nH]ccc5c4)cc3c2n1-c1ccc(C#N)cc1 | 123 nM | 62.5 nM | 96.4 nM | 1320 nM | 1410 nM | 7730 nM | 5680 nM | 3940 nM | 9710 nM
Cc1nc2cnc3ccc(-c4ccc(C#N)cc4)cc3c2n1-c1ccc(F)cc1 | > 1000 nM | 352 nM | 513 nM | – | – | – | – | – | –
Cc1nc2cnc3ccc(-c4cnc5[nH]ccc5c4)cc3c2n1C1CC1 | > 1000 nM | 501 nM | 814 nM | – | – | – | – | – | –
Cc1nc2cnc3ccc(-c4cnc5[nH]ccc5c4)cc3c2n1-c1ccc(CC#N)cc1 | 84.9 nM | 139 nM | 105 nM | 1150 nM | 1790 nM | 5360 nM | 2760 nM | 3210 nM | 4820 nM
CNC(=O)c1ccc(-c2ccc3ncc4nc(C)n(-c5ccc(F)cc5)c4c3c2)cc1 | 157 nM | 195 nM | 133 nM | 9890 nM | 12700 nM | > 20000 nM | > 20000 nM | > 20000 nM | > 20000 nM
Cc1nc2cnc3ccc(-c4cnc5[nH]ccc5c4)cc3c2n1-c1ccc(F)nc1 | 76.4 nM | 41.4 nM | 55.2 nM | 1160 nM | 1290 nM | 1310 nM | 1920 nM | 970 nM | 2100 nM
Cc1nc2cnc3ccc(-c4cnc(N5CCOCC5)nc4)cc3c2n1-c1ccc(F)cc1 | 596 nM | 463 nM | > 1000 nM | – | – | – | – | – | –
Cc1nc2cnc3ccc(-c4cnc5[nH]ccc5c4)cc3c2n1[C@@H](C)c1ccccc1 | 78.1 nM | 54.1 nM | 104 nM | 1610 nM | 1520 nM | 2150 nM | 1620 nM | 1050 nM | 3410 nM
Cc1nc2cnc3ccc(-c4ccc(F)cc4)cc3c2n1-c1ccc(F)cc1 | 781 nM | 487 nM | > 1000 nM | – | – | – | – | – | –
Cc1nc2cnc3ccc(-c4ccc(Cl)cc4)cc3c2n1-c1ccc(F)cc1 | > 1000 nM | 569 nM | > 1000 nM | – | – | – | – | – | –
CC(=O)c1ccc(-c2ccc3ncc4nc(C)n(-c5ccc(F)cc5)c4c3c2)cc1 | 487 nM | 304 nM | > 1000 nM | – | – | – | – | – | –
Cc1nc2cnc3ccc(-c4ccc(C(F)(F)F)cc4)cc3c2n1-c1ccc(F)cc1 | > 1000 nM | 507 nM | > 1000 nM | – | – | – | – | – | –
Oc1cccc(-c2nc(N3CCOCC3)c3oc4ncccc4c3n2)c1 [PI-103] | – | – | – | 1310 nM | 1760 nM | 2510 nM | 3720 nM | 1070 nM | 2160 nM
